System: HCT116 tumors
Assay: Antitumor effect of oral α-methyl-DL-tyrosine in athymic nude mice bearing HCT116 tumors
Format: in vivo
Protocol: A study was conducted to evaluate the antitumor effect of an oral formulations of α-methyl-DL-tyrosine in athymic nude mice bearing HCT116 tumors. Athymic nude mice (female, 6-7 weeks old) were purchased from Charles River Laboratories, USA. The mice were housed in a ventilated cage rack with HEAP filter system, with 12-hour light cycle at 21-24° C. (70-75° F.) and 40-60% humidity. The mice were fed with Rodent Diet 5001 (Lab Diet) consisting of: >23% protein; >4.5% fat; and >6% fiber. The mice were allowed free access to water ([…] water, 1 ppm CI). The mice were acclimated for 5 days prior to the implantation of HCT116 cells at 1 million cells per mouse in 100 ul of 1×PBS containing 50% Matrigel. At the completion of study, mice were euthanized with isoflurane followed by inhalation of carbon dioxide (CO2). The HCT116 cells (human colon carcinoma) were purchased from ATCC, and expanded to sufficient number of cells for tumor cell implantation. Solutions of α-methyl-DL-tyrosine at 16.2 mg/ml, 32.4 mg/ml, and 64.8 mg/ml in water were prepared After an acclimation period of 5 days, fifty (50) athymic nude female mice were inoculated in the thigh/flank area with 1 million of HCT116 cells suspended in 100 μl 1×PBS containing 50% Matrigel. Beginning at Day 6 post cell inoculation, the tumor volume was measured every day until the average tumor volume reached about 100 mm^3 (Tumor Volume=length×width×width×0.5). Forty-four (44) out of the fifty (50) mice within the range of 50-150 mm^3 were selected and randomly grouped into 4 groups (n=11): a control group treated with water ([…]), and 324 mg/kg (Group 4). The HCT-116 tumor bearing mice were oral gavage (PO) dosed daily at 5 ml/kg with water (Group 1), α-methyl-DL-tyrosine at 81 mg/kg (Group 2), α-methyl-DL-tyrosine at 162 mg/kg (Group 3), and α-methyl-DL-tyrosine at 324 mg/kg (Group 4) for 28 days. Clinical observations were made daily; tumor volume was measured every three to four days prior to dosing until the completion of study or when individual tumor volume exceeds 2000 mm^3.

CC(N)(Cc1ccc(O)cc1)C(=O)O (racemic) [α-methyl-DL-tyrosine]
tumor growth inhibition (324 mg/kg daily PO, p<0.05, t-test): statistically significant | tumor inhibition (324 mg/kg daily, Day 28): non-significant | HCT-116 Tumor volume (group average) (G2, 162 mg/kg [sic] PO daily, n = 11, Day 0 post 1st dosing): 63.5 mm^3 | HCT-116 Tumor volume (group average) (G2, 162 mg/kg [sic] PO daily, n = 11, Day 4 post 1st dosing): 112.5 mm^3 | HCT-116 Tumor volume (group average) (G2, 162 mg/kg [sic] PO daily, n = 11, Day 7 post 1st dosing): 215.3 mm^3 | HCT-116 Tumor volume (group average) (G2, 162 mg/kg [sic] PO daily, n = 11, Day 11 post 1st dosing): 373.6 mm^3 | HCT-116 Tumor volume (group average) (G2, 162 mg/kg [sic] PO daily, n = 11, Day 14 post 1st dosing): 643.5 mm^3 | HCT-116 Tumor volume (group average) (G2, 162 mg/kg [sic] PO daily, n = 11, Day 18 post 1st dosing): 1022.3 mm^3 | HCT-116 Tumor volume (group average) (G2, 162 mg/kg [sic] PO daily, n = 11, Day 21 post 1st dosing): 1405.9 mm^3 | HCT-116 Tumor volume (group average) (G2, 162 mg/kg [sic] PO daily, n = 11, Day 25 post 1st dosing): 1592.4 mm^3 | HCT-116 Tumor volume (group average) (G2, 162 mg/kg [sic] PO daily, n = 11, Day 28 post 1st dosing): 1718.8 mm^3 | HCT-116 Tumor volume (group average) (G3, 81 mg/kg [sic] PO daily, n = 11, Day 0 post 1st dosing): 64.3 mm^3 | HCT-116 Tumor volume (group average) (G3, 81 mg/kg [sic] PO daily, n = 11, Day 4 post 1st dosing): 106.0 mm^3 | HCT-116 Tumor volume (group average) (G3, 81 mg/kg [sic] PO daily, n = 11, Day 7 post 1st dosing): 214.6 mm^3 | HCT-116 Tumor volume (group average) (G3, 81 mg/kg [sic] PO daily, n = 11, Day 11 post 1st dosing): 391.4 mm^3 | HCT-116 Tumor volume (group average) (G3, 81 mg/kg [sic] PO daily, n = 11, Day 14 post 1st dosing): 676.6 mm^3 | HCT-116 Tumor volume (group average) (G3, 81 mg/kg [sic] PO daily, n = 11, Day 18 post 1st dosing): 1210.3 mm^3 | HCT-116 Tumor volume (group average) (G3, 81 mg/kg [sic] PO daily, n = 11, Day 21 post 1st dosing): 1680.1 mm^3 | HCT-116 Tumor volume (group average) (G3, 81 mg/kg [sic] PO daily, n = 11, Day 25 post 1st dosing): 1868.0 mm^3 | HCT-116 Tumor volume (group average) (G3, 81 mg/kg [sic] PO daily, n = 11, Day 28 post 1st dosing): 1979.2 mm^3 | HCT-116 Tumor volume (group average) (G4, 324 mg/kg PO daily, n = 11, Day 0 post 1st dosing): 64.2 mm^3 | HCT-116 Tumor volume (group average) (G4, 324 mg/kg PO daily, n = 11, Day 4 post 1st dosing): 92.9 mm^3 | HCT-116 Tumor volume (group average) (G4, 324 mg/kg PO daily, n = 11, Day 7 post 1st dosing): 172.3 mm^3 | HCT-116 Tumor volume (group average) (G4, 324 mg/kg PO daily, n = 11, Day 11 post 1st dosing): 310.5 mm^3 | HCT-116 Tumor volume (group average) (G4, 324 mg/kg PO daily, n = 11, Day 14 post 1st dosing): 506.3 mm^3 | HCT-116 Tumor volume (group average) (G4, 324 mg/kg PO daily, n = 11, Day 18 post 1st dosing): 654.9 mm^3 | HCT-116 Tumor volume (group average) (G4, 324 mg/kg PO daily, n = 11, Day 21 post 1st dosing): 890.6 mm^3 | HCT-116 Tumor volume (group average) (G4, 324 mg/kg PO daily, n = 11, Day 25 post 1st dosing): 1090.1 mm^3 | HCT-116 Tumor volume (group average) (G4, 324 mg/kg PO daily, n = 11, Day 28 post 1st dosing): 1325.7 mm^3 | maximum anti-tumor efficacy, reduction in tumor volume (observed on Day 22 (so in the source)): 48%

— US20210220312A1, “Compositions And Methods For Modulating Cancer” (Tyme, Inc., priority 2020, published 2021)
